Data: US20220273666A1, “NANOPARTICLE FORMULATION OF BCL-2 INHIBITOR” (Recurium IP Holdings, LLC, priority 2019, published 2022)

What was measured:
[1] = multiple oral administration under fed conditions; cited from earlier work
[2] = Phase I/II clinical trials, chronic lymphocytic leukemia; cited from earlier work
NCI-H146 cells = assay: NCI-H146 cell proliferation assay (CellTiter-Glo); assay type: cell-based; details: Homo sapiens, 72 h treatment, read-out: H146 CTG IC50
Protocol: Cell proliferation was measured using the CellTiter-Glo® Luminescent Cell Viability Assay. The assay involved the addition of a single reagent (CellTiter-Glo® Reagent) directly to cells cultured in serum-supplemented medium. RS4;11 (ATCC, CRL-1873) cells were cultured according to ATCC recommendations and were seeded at 50,000 cells per well. NCI-H1963 cells (ATCC CRL-5982) were cultured according to ATCC recommendations and seeded at 12,000 cells per well. NCI-H146 (ATCC, HTB-173) cells were cultured according to ATCC recommendations and were seeded at 20,000 cells per well.
Each compound evaluated was prepared as a DMSO stock solution (10 mM). Compounds were tested in duplicate on each plate, with a 10-point serial dilution curve (1:3 dilution). Compound treatment (1.0 μL for RS4;11 and NCI-H1963, 10 μL for NCI-H146) was added from the compound dilution plate to the cell plate. The highest compound concentration was 10 μM (final), with a 0.1% final DMSO concentration. Plates were then incubated at 37° C., 5% CO2. After 48 h of compound treatment for RS4;11 or 72 h for NCI-H-1963 and NCI-H-146, cell plates were equilibrated at rt for approximately 30 mins. An equi-volume amount of CellTiter-G)® Reagent (40 (L for […] and NC-H1963, 100 μL for NCI-H-146)) was added to each well. Plates were mixed for 2 mins on an orbital shaker to induce cell lysis and then incubated at RT for 10 mins to stabilize the luminescent signal. Luminescence was recorded using a Envision or SpectraMax M5e plate reader according to CellTiter-Glo protocol. IC50 of each compound was calculated using GraphPad Prism by nonlinear regression analysis.

Bcl-2 = Bcl-2 (Homo sapiens, UniProt P10415); assay: Bcl-2/Bcl-XL HTRF assay
Protocol: (§1) Binding to Bcl-2 proteins Bcl-2, and Bcl-XL was also assessed using an HTRF assay. […] This binding can be monitored by HTRF signals between anti-GST-Tb and FAM-peptide using GST-tagged Bcl proteins. Assay conditions: Bcl-2: 4 nM Bcl-2, 100 nM FAM-Bak peptide, Bcl-XL: 3 nM Bcl-XL, 40 nM FAM-Bad peptide in 20 mM K Phosphate, pH 7.5, 50 mM NaCl, 1 mM EDTA, 0.005% Triton X-100 and 1% DMSO (final). […] Compound stock solutions were added to protein solution using Acoustic technology. The compounds were then incubated with protein for 10 min at room temperature. The respective FAM labeled peptide was added and incubated for another 10 min and then anti-GST-Tb was added. After 60 min at rt, the HTRF fluorescence signal ratio was measured. Curve fits were performed in GraphPad Prism 4 with “sigmoidal dose-response (variable slope)”; 4 parameters with Hill Slope.

Bcl-XL = molecular target: T1, Bcl-XL (Homo sapiens, UniProt Q07817); assay: Bcl-2/Bcl-XL HTRF assay; assay type: binding; details: 3 nM Bcl-XL, 40 nM FAM-Bad peptide
T1 construct: host or cells: T7 phage in E. coli host derived from BL21
T1 sequence (Q07817 whole entry): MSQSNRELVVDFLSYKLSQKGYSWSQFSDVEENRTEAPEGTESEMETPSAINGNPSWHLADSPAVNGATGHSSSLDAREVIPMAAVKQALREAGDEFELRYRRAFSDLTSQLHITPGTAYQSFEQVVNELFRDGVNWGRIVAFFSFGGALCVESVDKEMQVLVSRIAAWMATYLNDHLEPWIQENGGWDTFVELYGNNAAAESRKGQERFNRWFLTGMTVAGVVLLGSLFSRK
Protocol: as §1

Chain of Bcl-2 (P10415 whole entry): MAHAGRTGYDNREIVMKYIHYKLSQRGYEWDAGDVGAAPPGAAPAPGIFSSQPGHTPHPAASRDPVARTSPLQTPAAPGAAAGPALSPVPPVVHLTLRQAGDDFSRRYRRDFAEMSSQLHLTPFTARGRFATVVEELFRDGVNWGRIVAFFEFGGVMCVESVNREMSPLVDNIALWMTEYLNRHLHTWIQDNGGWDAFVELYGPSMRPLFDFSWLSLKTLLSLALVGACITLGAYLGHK

| Compound | IC50 (NCI-H146 cells) [nM] | IC50 (Bcl-2) [nM] | IC50 (Bcl-XL) [nM] | also measured |
| --- | --- | --- | --- | --- |
| CC1(C)CCC(CN2CCN(c3ccc(C(=O)NS(=O)(=O)c4ccc(NCC5CCOCC5)c([N+](=O)[O-])c4)c(Oc4cnc5[nH]ccc5c4)c3)CC2)=C(c2ccc(Cl)cc2)C1 [ABT-199, venetoclax] | – | – | – | time to maximum plasma concentration [1]: 5 to 8 h |
| CC1(C)CCC(c2ccc(Cl)cc2)=C(CN2CCN(c3ccc(C(=O)NS(=O)(=O)c4ccc(N[C@H](CCN5CCOCC5)CSc5ccccc5)c(S(=O)(=O)C(F)(F)F)c4)cc3)CC2)C1 [ABT-263, Navitoclax, reference compound] | ≤ 100 | – | – | side effect limiting dosage [2]: occurrence of thrombocytopenia |
| CN1CCN(CC[C@H](CSc2ccccc2)Nc2ccc(S(=O)(=O)NC(=O)c3ccc(N4CCN(CC5=C(C67CC(C(F)F)(C6)C7)CC(C)(C)CC5)CC4)cc3)cc2S(=O)(=O)C(F)(F)F)CC1 [Example 98, (R)-4-(4-((2-(3-(difluoromethyl)bicyclo[1.1.1]pentan-1-yl)-4,4-dimethylcyclohex-1-en-1-yl)methyl)piperazin-1-yl)-N-((4-((4-(4-methylpiperazin-1-yl)-1-(phenylthio)butan-2-yl)amino)-3-((trifluoromethyl)sulfonyl)phenyl)sulfonyl)benzamide] | 100 to 1000 | < 10 | < 10 | – |
| COC1CCN(CC[C@H](CSc2ccccc2)Nc2ccc(S(=O)(=O)NC(=O)c3ccc(N4CCN(CC5=C(C67CC(C(F)F)(C6)C7)CC(C)(C)CC5)CC4)cc3)cc2S(=O)(=O)C(F)(F)F)CC1 [Example 99, (R)-4-(4-((2-(3-(difluoromethyl)bicyclo[1.1.1]pentan-1-yl)-4,4-dimethylcyclohex-1-en-1-yl)methyl)piperazin-1-yl)-N-((4-((4-(4-methoxypiperidin-1-yl)-1-(phenylthio)butan-2-yl)amino)-3-((trifluoromethyl)sulfonyl)phenyl)sulfonyl)benzamide] | ≤ 100 | < 10 | < 10 | – |
| CC1(C)CCC(CN2CCN(c3ccc(C(=O)NS(=O)(=O)c4ccc(N[C@H](CCN5CCCC5)CSc5ccccc5)c(S(=O)(=O)C(F)(F)F)c4)cc3)CC2)=C(C23CC(C(F)F)(C2)C3)C1 [Example 100, (R)-4-(4-((2-(3-(difluoromethyl)bicyclo[1.1.1]pentan-1-yl)-4,4-dimethylcyclohex-1-en-1-yl)methyl)piperazin-1-yl)-N-((4-((1-(phenylthio)-4-(pyrrolidin-1-yl)butan-2-yl)amino)-3-((trifluoromethyl)sulfonyl)phenyl)sulfonyl)benzamide] | ≤ 100 | < 10 | < 10 | – |
| COC1(C)CCN(CC[C@H](CSc2ccccc2)Nc2ccc(S(=O)(=O)NC(=O)c3ccc(N4CCN(CC5=C(C67CC(C(F)F)(C6)C7)CC(C)(C)CC5)CC4)cc3)cc2S(=O)(=O)C(F)(F)F)CC1 [Example 101] | ≤ 100 | – | – | – |
| CC1(C)CCC(CN2CCN(c3ccc(C(=O)NS(=O)(=O)c4ccc(N[C@H](CCN5CCO[C@H](CO)C5)CSc5ccccc5)c(S(=O)(=O)C(F)(F)F)c4)cc3)CC2)=C(C23CC(C(F)F)(C2)C3)C1 [Example 102] | ≤ 100 | – | – | – |
| CC1(C)CCC(CN2CCN(c3ccc(C(=O)NS(=O)(=O)c4ccc(N[C@H](CCN5CCO[C@@H](CO)C5)CSc5ccccc5)c(S(=O)(=O)C(F)(F)F)c4)cc3)CC2)=C(C23CC(C(F)F)(C2)C3)C1 [Example 103] | 100 to 1000 | – | – | – |
| COC(=O)C1(C)CCN(CC[C@H](CSc2ccccc2)Nc2ccc(S(=O)(=O)NC(=O)c3ccc(N4CCN(CC5=C(C67CC(C(F)F)(C6)C7)CC(C)(C)CC5)CC4)cc3)cc2S(=O)(=O)C(F)(F)F)CC1 [Example 104, (R)-Methyl 1-(3-((4-(N-(4-(4-((2-(3-(difluoromethyl)bicyclo[1.1.1]pentan-1-yl)-4,4-dimethylcyclohex-1-en-1-yl)methyl)piperazin-1-yl)benzoyl)sulfamoyl)-2-((trifluoromethyl)sulfonyl)phenyl)amino)-4-(phenylthio)butyl)-4-methylpiperidine-4-carboxylate] | ≤ 100 | < 10 | < 10 | – |
| CCOC1CCN(CC[C@H](CSc2ccccc2)Nc2ccc(S(=O)(=O)NC(=O)c3ccc(N4CCN(CC5=C(C67CC(C(F)F)(C6)C7)CC(C)(C)CC5)CC4)cc3)cc2S(=O)(=O)C(F)(F)F)CC1 [Example 105, (R)-4-(4-((2-(3-(difluoromethyl)bicyclo[1.1.1]pentan-1-yl)-4,4-dimethylcyclohex-1-en-1-yl)methyl)piperazin-1-yl)-N-((4-((4-(4-ethoxypiperidin-1-yl)-1-(phenylthio)butan-2-yl)amino)-((trifluoromethyl)sulfonyl)phenyl)sulfonyl)benzamide] | ≤ 100 | – | – | – |
| CC(C)OC1CCN(CC[C@H](CSc2ccccc2)Nc2ccc(S(=O)(=O)NC(=O)c3ccc(N4CCN(CC5=C(C67CC(C(F)F)(C6)C7)CC(C)(C)CC5)CC4)cc3)cc2S(=O)(=O)C(F)(F)F)CC1 [Example 106] | 100 to 1000 | – | – | – |
| CC(C)N1CCN(CC[C@H](CSc2ccccc2)Nc2ccc(S(=O)(=O)NC(=O)c3ccc(N4CCN(CC5=C(C67CC(C(F)F)(C6)C7)CC(C)(C)CC5)CC4)cc3)cc2S(=O)(=O)C(F)(F)F)CC1 [Example 107, (R)-4-(4-((2-(3-(difluoromethyl)bicyclo[1.1.1]pentan-1-yl)-4,4-dimethylcyclohex-1-en-1-yl)methyl)piperazin-1-yl)-N-((4-((4-(4-isopropylpiperazin-1-yl)-1-(phenylthio)butan-2-yl)amino)-3-((trifluoromethyl)sulfonyl)phenyl)sulfonyl)benzamide] | ≤ 100 | – | – | – |
| CCC12CC(C3=C(CN4CCN(c5ccc(C(=O)NS(=O)(=O)c6ccc(N[C@H](CCN7CCC(OC)CC7)CSc7ccccc7)c(S(=O)(=O)C(F)(F)F)c6)cc5)CC4)CCC(C)(C)C3)(C1)C2 [Example 108, (R)-4-(4-((2-(3-ethylbicyclo[1.1.1]pentan-1-yl)-4,4-dimethylcyclohex-1-en-1-yl)methyl)piperazin-1-yl)-N-((4-((4-(4-methoxypiperidin-1-yl)-1-(phenylthio)butan-2-yl)amino)-3-((triluoromethyl)sulfonyl)phenyl)sulfonyl)benzamide] | ≤ 100 | – | – | – |
